Data set [1] is described as follows: physchem. The note with it: for – S of standards: slope of Eq. 1; for −S: slope of logk vs. methanol concentration (Eq. 1); for chromatographic logP: read-out: logPHPLC. Format: physicochemical. The method, then: Methanolic solutions (5 μL, 0.1%) of selected samples were applied to the chromatographic column (RP-18 Waters Symmetry, 15 cm length, 4.6 mm i.d., 5 μm particle size) by use of an autosampler Hitachi L-2200 (LaChrom Elite, Hitachi-Merck, Darmstadt, Germany). The mobile phase, consisting of a methanol and water mixture, was degassed by use of the built-in membrane degasser. […] Chromatograms were detected at 254 nm and the temperature of the column was 25 °C. All experiments were repeated in triplicate and the final results were taken to be the arithmetic means. Dead time was measured by use of uracil (Calbiochem. Merck, Darmstadt, Germany). All experiments were performed at ambient temperature.

Data set [2] has as its target S. aureus DNA gyrase. The following applies: previously tested, read-out: Inhibitory Potency IC50 DNA Gyrase; cited from earlier work.
The target of data set [3] is S. aureus topoisomerase IV (topo IV). The note with it: previously tested, cited from earlier work; for IC50: read-out: Inhibitory Potency IC50 Topo IV.
Details of data set [4]: method as in earlier work. The note with it: octanol–water; OECD guidelines; cited from earlier work.
The mark [5] stands for this setting: same chromatographic conditions as compounds 1–17.
Where [6] appears, read: Table 1, retention factor extrapolated to pure water (Eq. 1), methanol 45–75%, RP-18, 25 °C.
Where [7] appears, read: Table 2, retention factor extrapolated to pure water.
The mark [8] stands for this setting: from logkw by calibration curve with seven OECD standards (Eq. 3).

The values that follow come from paper PMC6152747, “Lipophilicity Studies on Thiosemicarbazide Derivatives” (Molecules : A Journal of Synthetic Chemistry and Natural …, 2017).

As to `Oc1ccc2ccccc2n1` [2-hydroxyquinoline, reference compound], the logkw of standards in data set [1] (Table S2, parameters of Eq. 1) was 1.4879; in data set [1] (setting [5]) it was 1.3682. Further, the “– S of standards” value in data set [1] (Table S2) was 2.9059.

For `Cc1occc1C(=O)NNC(=S)NC(=O)c1ccccc1` [Compound 1], in data set [2], the IC50 (as a rule, the concentration needed to halve the response being measured) is 14.6 µM. Besides, the logkw in data set [1] (setting [6]) and in data set [1] (setting [7]) was 2.9992 each time. Also, the “−S” value in data set [1] (Table 1) was 4.3720. The chromatographic logP in data set [1] (setting [8]) was 3.05.

Consider `O=C(NC(=S)NNC(=O)c1ccc[nH]1)c1ccccc1` [Compound 2], for which the figures for the IC50 in data set [2] and in data set [3] were 93.3 µM and 41 µM, respectively. Besides, the “Inhibitory Potency IC50 Topo IV” value in data set [3] was “anti-topo IV activity”. Also, the logkw in data set [1] (setting [6]) and in data set [1] (setting [7]) was 2.5105 each time. Further, the “−S” value in data set [1] (Table 1) is 4.1416. Further, the chromatographic logP in data set [1] (setting [8]) came to 2.53.

`O=C(NNC(=S)NC(=O)c1ccccc1Cl)c1ccccc1O` [Compound 3]: the logkw in data set [1] (setting [6]) was 4.2230. In addition, the “−S” value in data set [1] (Table 1) is given as 6.1166. In addition, the chromatographic logP in data set [1] (setting [8]) was determined as 4.36.

With `COc1cccc(C(=O)NNC(=S)NC(=O)c2ccccc2)c1` [Compound 4], the logkw in data set [1] (setting [6]) and in data set [1] (setting [7]) was 3.3130 each time. Further, the “−S” value in data set [1] (Table 1) is given as 4.8205. The chromatographic logP in data set [1] (setting [8]) came out at 3.38.

Consider `COc1cccc(C(=O)NNC(=S)NC(=O)c2ccccc2C)c1` [Compound 5], for which the logkw in data set [1] (setting [6]) and in data set [1] (setting [7]) was 3.4487 each time. The “−S” value in data set [1] (Table 1) was found to be 4.8562. Also, the chromatographic logP in data set [1] (setting [8]) was 3.53.

Take `COc1cccc(C(=O)NNC(=S)NC(=O)c2cccc(C)c2)c1` [Compound 6]: the logkw in data set [1] (setting [6]) and in data set [1] (setting [7]) was 3.7864 each time. Besides, in data set [1] (Table 1), the “−S” value worked out at 5.1137. Besides, the chromatographic logP in data set [1] (setting [8]) was determined as 3.89.

In the case of `COc1cccc(C(=O)NNC(=S)NC(=O)c2ccccc2Cl)c1` [Compound 7], the logkw in data set [1] (setting [6]) and in data set [1] (setting [7]) was 3.8283 each time. In data set [1] (Table 1), the “−S” value turned out to be 5.6579. The chromatographic logP in data set [1] (setting [8]) turned out to be 3.93.

Consider `COc1cccc(C(=O)NNC(=S)NC(=O)c2cccc(Cl)c2)c1` [Compound 8], for which the logkw in data set [1] (setting [6]) and in data set [1] (setting [7]) was 3.7422 in each case. Besides, the “−S” value in data set [1] (Table 1) amounted to 5.0742. Also, in data set [1] (setting [8]), the chromatographic logP was determined as 3.84.

For the molecule `COc1cccc(C(=O)NNC(=S)NC(=O)c2ccc(Cl)cc2)c1` [Compound 9], the logkw in data set [1] (setting [6]) and in data set [1] (setting [7]) was 3.9422 each time. Also, in data set [1] (Table 1), the “−S” value was found to be 5.3417. In data set [1] (setting [8]), the chromatographic logP was 4.05.

With `O=C(CS(=O)(=O)c1ccccc1)NNC(=S)NC(=O)c1ccccc1Cl` [Compound 10], the logkw in data set [1] (setting [6]) and in data set [1] (setting [7]) was 3.2498 in each case. For the same molecule, the “−S” value in data set [1] (Table 1) came to 5.7291. For the same molecule, the chromatographic logP in data set [1] (setting [8]) was 3.31.

For `O=C(NNC(=S)Nc1ccc(Cl)cc1)c1ccccc1O` [Compound 11], the logkw in data set [1] (setting [6]) and in data set [1] (setting [7]) was 3.3324 throughout. Further, the “−S” value in data set [1] (Table 1) is listed as 4.8778. In data set [1] (setting [8]), this molecule had a logPHPLC of 3.4026.

On to `O=C(NNC(=S)Nc1ccccc1)c1ccccc1O` [Compound 12], for which the logkw in data set [1] (setting [6]) and in data set [1] (setting [7]) was 2.4813 in each case. Besides, in data set [1] (Table 1), the “−S” value came out at 4.1962. Besides, the chromatographic logP in data set [1] (setting [8]) came out at 2.49.

With `O=C(NNC(=S)NC1CCCCC1)c1ccccc1O` [Compound 13], the logkw in data set [1] (setting [6]) and in data set [1] (setting [7]) was 3.2386 throughout. Besides, the “−S” value in data set [1] (Table 1) was 4.7076. For the same molecule, the chromatographic logP in data set [1] (setting [8]) was determined as 3.3.

For the molecule `O=C(NNC(=S)Nc1ccc(Cl)c(Cl)c1)c1ccccc1O` [Compound 14], the logkw in data set [1] (setting [6]) and in data set [1] (setting [7]) was 4.1453 throughout. For the same molecule, the “−S” value in data set [1] (Table 1) came to 5.6538. Also, the chromatographic logP in data set [1] (setting [8]) was 4.27.

Regarding `Cc1ccc(NC(=S)NNC(=O)c2ccccc2O)cc1Cl` [Compound 15], the logkw in data set [1] (setting [6]) and in data set [1] (setting [7]) was 3.9451 throughout. Besides, the “−S” value in data set [1] (Table 1) is listed as 5.5432. Moreover, the chromatographic logP in data set [1] (setting [8]) was 4.06.

`O=C(NNC(=S)Nc1ccccc1)c1cccc(O)c1` [Compound 16]: the logkw in data set [1] (setting [6]) and in data set [1] (setting [7]) was 2.0687 each time. The “−S” value in data set [1] (Table 1) came out at 4.1968. Moreover, in data set [1] (setting [8]), the chromatographic logP was 2.05.

With `O=C(NNC(=S)NC1CCCCC1)c1cccc(O)c1` [Compound 17], the logkw in data set [1] (setting [6]) and in data set [1] (setting [7]) was 2.7583 each time. In data set [1] (Table 1), the “−S” value is 4.3297. Further, the chromatographic logP in data set [1] (setting [8]) was found to be 2.79.

As to `O=C(NC(=S)NNC(=O)c1cc2ccccc2[nH]1)c1ccccc1` [Compound 18], in data set [3], the half-inhibitory concentration (IC50) is 14 µM and the “Inhibitory Potency IC50 Topo IV” value is listed as “anti-topo IV activity”.

On to `O=C(NC(=S)NNC(=O)c1cccs1)c1ccccc1` [Compound 19], for which the IC50 in data set [2] is 83.6 µM.

Regarding `Cc1nc[nH]c1C(=O)NNC(=S)NC(=O)c1ccccc1` [Compound 20], in data set [3], the IC50 is 90 µM and the “Inhibitory Potency IC50 Topo IV” value is reported as “anti-topo IV activity”.

Consider `O=C(NNC(=S)Nc1ccc([N+](=O)[O-])cc1)c1cc2ccccc2[nH]1` [Compound 21], for which, in data set [3], the IC50 was 14 µM.

For the molecule `O=C(NNC(=S)Nc1ccccc1F)c1cc2ccccc2[nH]1` [Compound 22], in data set [3], the IC50 was 63.5 µM and the “Inhibitory Potency IC50 Topo IV” value is recorded as “weak inhibitory potency”.

As to `O=C(NNC(=S)Nc1ccc(F)cc1)c1cc2ccccc2[nH]1` [Compound 23], the IC50 is 128 µM in data set [2] and 267 µM in data set [3]. Besides, in data set [3], the “Inhibitory Potency IC50 Topo IV” value is given as “weak inhibitory potency”.

For the molecule `O=C(NNC(=S)Nc1ccc(F)cc1F)c1cc2ccccc2[nH]1` [Compound 24], in data set [3], the IC50 was 295 µM and the “Inhibitory Potency IC50 Topo IV” value is “weak inhibitory potency”.

Regarding `O=C(NNC(=S)Nc1ccc([N+](=O)[O-])cc1)c1ccc[nH]1` [Compound 27], the IC50 in data set [2] is 64.2 µM.

With `Cc1nnsc1C(=O)NNC(=S)Nc1ccc(Br)cc1` [Compound 28], the IC50 in data set [3] was 403 µM.

In data set [1] (Table S2, parameters of Eq. 1), `Nc1ccccc1` [aniline, reference compound] showed a logkw of standards of 1.1365. The “– S of standards” value in data set [1] (Table S2) is 2.4091.

Molecule `c1ccccc1` [benzene, reference compound] came in with a logkw of standards in data set [1] (Table S2, parameters of Eq. 1) of 2.2458. In addition, the “– S of standards” value in data set [1] (Table S2) was found to be 2.8691.

In data set [1] (Table S2, parameters of Eq. 1), `Brc1ccccc1` [bromobenzene, reference compound] displayed a logkw of standards of 3.0842. Moreover, in data set [1] (Table S2), the “– S of standards” value was determined as 3.6630.

For `CCc1ccccc1` [ethylbenzene, reference compound], the logkw of standards stood at 3.4018 in data set [1] (Table S2, parameters of Eq. 1) and 3.3754 in data set [1] (setting [5]). The “– S of standards” value in data set [1] (Table S2) turned out to be 3.8740.

As for `c1ccc2ccccc2c1` [naphtalene, reference compound], the “known logPo/w of standards” value in data set [4] is 3.6. Moreover, the logkw of standards is on record as 3.5779 in data set [1] (Table S2, parameters of Eq. 1) and 3.5502 in data set [1] (setting [5]). The “– S of standards” value in data set [1] (Table S2) amounted to 4.2289.

`Cc1ccccc1` [toluene, reference compound]: the “– S of standards” value in data set [1] (Table S2) is listed as 3.4400.
